The source of these data is ChEMBL document CHEMBL3430912, “GSK Tres Cantos Anti-Kinetoplastid Screening (TCAKS) Data”.

The IC50 is the concentration needed to halve the response being measured.

One data set concerns NIH3T3. Description: GSK_TCAKS: pIC50 NIH 3T3 cell line viability assay using luminiscence. Tissue culture surface treated assay plates (1536-well) were used. […] The 100% cells survival control was determined exposing the host-cells to a 0.5% DMSO concentration, whereas the 100% toxicity control was achieved by seeding the cells in presence of Amphotericin B at 50uM. Plates were incubated for four days at 37C, 5% CO2. The assay readout was developed by addition of 5uL of CellTiter-Glo Reagent following the manufacturer's instructions. Luminiscence was measured using a ViewLux. In kind it is functional, cell-based. The settings on record: Mus musculus, NIH3T3, 96 h. A general note: Cellular ATP, detected with luciferase, serves as a proxy for viable cell number.

The test system of data set [1] is Leishmania donovani. The data set can be described thus: GSK_TCAKS: pIC50 Leishmania donovani viability assay using fluorescence intensity. Assay plates (1536-well) were prepared by adding 30nL per well of compound. For single shot assay, the final compound concentration was 5uM. […] Briefly, eGFP LdBOB axenic amastigotes were harvested, fixed and counted in a CASY cell counter (Roche-Applied Science). A final concentration of 1.5 * 10^5 cells per well were prepared in amastigote media containing 500 U/mL penicillin/streptomycin (Invitrogen) and 6uL was dispensed to each experimental well using a Multidrop Combi dispenser (Thermo Scientific). 6uL of assay media was dispensed to control columns used as reference for 100% compound response. Following incubation for 72 h at 37C, 5% CO2, 2 uL of resazurin was added to each well at a final concentration of 0.5 mM in phosphate buffered saline (PBS) with IGEPAL (Sigma-Aldrich), 0.05% (v/v). In kind it is functional, organism-based. (In general: The colour change of resazurin is a common sign of viable cells or microbes.)

The subject of data set [2] is Leishmania donovani. The data set can be described thus: GSK_TCAKS: pIC50 Leishmania donovani Imaging: Infected Macrophages. Assay plates (384-well) were prepared by adding 250nL of compound to each well. For single shot assay, the final compound concentration was 5 uM. […] Automated image analysis was performed with a script developed on Acapella High Content Imaging and Analysis Software (PerkinElmer). Output: Percent of infected macrophage cells were reported for each well. In kind it is functional, organism-based, Homo sapiens. Particulars: THP-1.

Data set [3] concerns Trypanosoma brucei brucei. The data set can be described thus: GSK_TCAKS: pIC50 Trypanosoma brucei viability assay using luminiscence. Assay plates (1536-well) were prepared. T. brucei cultures were harvested and counted in a CASY cell counter. A parasite suspension was prepared at a final concentration of 5 * 10^4 cells/mL in complete HMI9 medium and 6uL was dispensed to all wells containing compounds using a Multidrop Combi dispenser. 6uL of HMI9 media with 0.4% DMSO were dispensed to control columns. Plates were incubated for 24 h at 37C, 5% CO2 then tempered for 10 min at room temperature. ATP content was quantified by adding 4 uL of CellTiter-Glo Reagent (Promega) according to the manufacturer's instructions. Luminescence was measured using a ViewLux. It counts as functional, organism-based. Particulars: Lister 427, CASY.

Data set [4] relates to Trypanosoma cruzi. The data set can be described thus: (§1) GSK_TCAKS: pIC50 Trypanosoma cruzi Imaging: Amastigotes/Cell. […] Cells were then washed once with PBS before infection. T. cruzi trypomastigotes, collected at days 5 to 8 after infection from LLC-MK2 parasite infected cultures, were allowed to swim out for 4h at 37C from a centrifuged pellet (2,500 rpm/10 min/room temperature). Trypomastigotes were then collected and counted in a CASY Cell Counter. Trypomastigotes, in supplemented DMEM, were added to H9c2 cultures in a multiplicity of infection of 1 and incubated for 18 h. Cells were washed once with PBS before incubation of the infected H9c2 monolayer with trypsin (Life-Technologies) to detach cells from the flask. Cells were counted in a CASY Cell Counter using a 150 um capillary and their density set at 5 * 10^4 cells per mL in supplemented assay DMEM. Infected H9c2 were dispensed into 384-well poly-lysine coated assay plates at 50uL per well using a Multidrop Combi dispenser. After seeding them, the plates were incubated at 37C, 5% CO2 for 72h. Cultures were then fixed and stained by addition of 50 uL of a solution containing 8% formaldehyde and 4 uM DRAQ5 DNA dye (BioStatus, UK) per well. […] Five images were collected per well for reliable statistical analysis. Automated image analysis was performed with a script developed on Acapella High Content Imaging and Analysis Software (PerkinElmer). Output: number of amastigotes per cell as infection level measurement. The settings on record: H9c2, 4 h. In kind it is functional, organism-based, Rattus norvegicus.

Data set [5] has as its system Leishmania donovani. Description: GSK_TCAKS: pIC50 Leishmania donovani Imaging: THP-1 Host Macrophages. Assay plates (384-well) were prepared by adding 250nL of compound to each well. For single shot assay, the final compound concentration was 5 uM. […] Automated image analysis was performed with a script developed on Acapella High Content Imaging and Analysis Software (PerkinElmer). Output: THP-1 cell count were reported for each well. In kind it is functional, organism-based, Homo sapiens.

Data set [6] has as its system Trypanosoma cruzi. The data set can be described thus: GSK_TCAKS: pIC50 Trypanosoma cruzi viability assay using beta-GAL activity. This assay was run at single shot at 5uM compound concentration per well. The biological reagents consisted of NIH-3T3 host cells and trypomastigotes parasitic cells; both cell types were set to a 3.3 * 10^5 cells/mL dilution in assay DMEM by means of a CASY cell counter device using a 60um capillary. 6 uL of the mixture were dispensed per well (about 1 * 10^3 host-cells and 1 * 10^3 parasites) with a Multidrop Combi dispenser. […] In all wells, the percentage of DMSO never exceeded 0.5%. Plates incubated for four days at 37C, 5% CO2. The substrate used for the assay fluorescence intensity (FLINT) readout was resorufin-beta-D-galactopiranoside (Sigma-Aldrich) at 5uM per well. It was diluted in PBS supplemented with the soft detergent Igepal (Fluka). Particulars: Tulahuen, NIH3T3. In kind it is functional, organism-based, Mus musculus.

Data set [7] concerns Leishmania donovani. Description: GSK_TCAKS: pIC50 Leishmania donovani Imaging: Amastigotes/Macrophages. Assay plates (384-well) were prepared by adding 250nL of compound to each well. For single shot assay, the final compound concentration was 5 uM. […] Automated image analysis was performed with a script developed on Acapella High Content Imaging and Analysis Software (PerkinElmer). Output: Average number of amastigotes per macrophage cell were reported for each well. In kind it is functional, organism-based, Homo sapiens. Particulars: THP-1.

Data set [8] is described as follows: GSK_TCAKS: pIC50 HepG2 human cell line viability assay using luminiscence. […] Seeding density was checked to ensure that new mono-layers were not more than 50% confluent at the time of harvesting. Cell suspension was added to 500 mL of the same medium at a final density of 1.2 * 10^5 cells/mL. This cell suspension was dispensed (25 uL, 3000 cells per well) into 384-well clear-bottom plates using a Multidrop Combi dispenser. Prior to addition of the cell suspension, the screening compounds (250 nL) were pre-dispensed into the plates with an Echo liquid handler. Plates were incubated for 48 h at 37C, 5% CO2. After incubation, plates equilibrated at room temperature for 30 min before proceeding to develop the luminescent signal. The signal developer, CellTiter-Glo Reagent, was allowed to equilibrate at room temperature for 30 min and added to the plates (25uL per well) using a Multidrop Combi dispenser. Plates were left for 10 min at room temperature for stabilization and then read using a ViewLux. In kind it is toxicity, cell-based.

The subject of data set [9] is Trypanosoma cruzi. The description is as §1, with “H2C9” for “Trypanosoma cruzi”, “H9c2 Host Cardiomyocytes.” for “Amastigotes/Cell.”, “Number” for “number”, “H9c2 Host Cardiomyocytes nuclei to determine drug-related cytotoxicity.” for “amastigotes per cell as infection level measurement.”. The settings on record: H9c2, 4 h. It counts as functional, organism-based, Rattus norvegicus.

Data set [10] relates to Trypanosoma cruzi. Description: GSK_TCAKS: pIC50 Trypanosoma cruzi Imaging: Infected Cells. […] Cells were then washed once with PBS before infection. T. cruzi trypomastigotes, collected at days 5 to 8 after infection from LLC-MK2 parasite infected cultures, were allowed to swim out for 4h at 37C from a centrifuged pellet (2,500 rpm/10 min/room temperature). Trypomastigotes were then collected and counted in a CASY Cell Counter. Trypomastigotes, in supplemented DMEM, were added to H9c2 cultures in a multiplicity of infection of 1 and incubated for 18 h. Cells were washed once with PBS before incubation of the infected H9c2 monolayer with trypsin (Life-Technologies) to detach cells from the flask. Cells were counted in a CASY Cell Counter using a 150 um capillary and their density set at 5 * 10^4 cells per mL in supplemented assay DMEM. Infected H9c2 were dispensed into 384-well poly-lysine coated assay plates at 50uL per well using a Multidrop Combi dispenser. After seeding them, the plates were incubated at 37C, 5% CO2 for 72h. Cultures were then fixed and stained by addition of 50 uL of a solution containing 8% formaldehyde and 4 uM DRAQ5 DNA dye (BioStatus, UK) per well. […] Five images were collected per well for reliable statistical analysis. Automated image analysis was performed with a script developed on Acapella High Content Imaging and Analysis Software (PerkinElmer). Output: percentage of infected cells per well as a second infection marker. In kind it is functional, organism-based, Rattus norvegicus. Particulars: H9c2, 4 h.

The subject of data set [11] is Trypanosoma brucei brucei. The data set can be described thus: GSK_TCAKS: pIC50 Trypanosoma brucei viability assay using fluorescence intensity. Assay plates (1536-well) were prepared by dispensing 25nL of compound solution per well using an Echo acoustic dispenser (Labcyte). Particulars: Lister 427, 2 h. It counts as functional, organism-based.
Data set [12] addresses Sterol 14-alpha demethylase (Trypanosoma cruzi (strain CL Brener), UniProt Q7Z1V1). Description: GSK_TCAKS: pIC50 CYP51 from Trypanosoma cruzi. It counts as functional.

Each structure is given as a SMILES string.

Chain of Sterol 14-alpha demethylase (Q7Z1V1 whole entry): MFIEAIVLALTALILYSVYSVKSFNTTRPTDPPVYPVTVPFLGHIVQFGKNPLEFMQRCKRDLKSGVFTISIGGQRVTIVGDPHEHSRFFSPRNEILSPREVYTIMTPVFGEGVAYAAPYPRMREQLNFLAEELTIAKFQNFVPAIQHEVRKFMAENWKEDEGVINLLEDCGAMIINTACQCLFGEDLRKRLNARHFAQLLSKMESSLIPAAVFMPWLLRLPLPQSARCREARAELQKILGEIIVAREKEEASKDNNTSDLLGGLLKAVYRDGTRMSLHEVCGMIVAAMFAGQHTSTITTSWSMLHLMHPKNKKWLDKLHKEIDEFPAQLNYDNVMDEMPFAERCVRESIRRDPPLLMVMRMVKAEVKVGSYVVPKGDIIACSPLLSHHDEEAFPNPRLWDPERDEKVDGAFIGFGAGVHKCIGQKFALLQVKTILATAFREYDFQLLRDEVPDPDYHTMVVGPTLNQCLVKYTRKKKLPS

As for `CNc1cc(Cn2c(C(=O)c3cc(C)cc(Cl)c3)c(C(C)C)c(=O)[nH]c2=O)ccn1`, the half-maximal inhibitory concentration (IC50) is 10000 nM with NIH3T3; above 50100 nM in the data set on Leishmania donovani [1]; 20000 nM in the data set on Leishmania donovani [2]; 25100 nM in data set [3]; 20 nM in the data set with Trypanosoma cruzi [4]; above 50100 nM in the data set on Leishmania donovani [5]. Moreover, the IC50 in the data set on Trypanosoma cruzi [6] was 39.8 nM; in the data set with Leishmania donovani [7], 12600 nM; with Trypanosoma cruzi [9], above 50100 nM; in the data set on Trypanosoma cruzi [10], 20 nM; in data set [11] it was 25100 nM; in [12], 31.6 nM. In [8], this compound had an IC50 at 48 h above 100000 nM.

With `O=c1[nH]cnc2c([C@@H]3O[C@H](CO)[C@@H](O)[C@H]3O)n[nH]c12` [FORMYCIN B], the IC50 in the data set on NIH3T3 was above 50100 nM; in the data set with Leishmania donovani [1], 398 nM; with Leishmania donovani [2] it was 2000 nM; in data set [3], 5.01 nM; with Trypanosoma cruzi [4], 316 nM; with Leishmania donovani [5], above 50100 nM. Besides, the IC50 in the data set with Trypanosoma cruzi [6] was 141 nM; in the data set with Leishmania donovani [7], 398 nM; in the data set with Trypanosoma cruzi [9] it was above 50100 nM; with Trypanosoma cruzi [10], 501 nM; in data set [11], 3.16 nM; in data set [12], above 100000 nM. In [8], this compound gave an IC50 at 48 h above 100000 nM.

In the case of `CC(C)(C)C(O)(CCc1ccc(Cl)cc1)Cn1cncn1` (centres undefined) [TEBUCONAZOLE], the IC50 is above 50100 nM in the data set with NIH3T3; 3160 nM with Leishmania donovani [1]; above 50100 nM in the data set on Leishmania donovani [2]; above 39800 nM in data set [3]; 200 nM with Trypanosoma cruzi [4]; above 50100 nM in the data set on Leishmania donovani [5]. The IC50 with Trypanosoma cruzi [6] is 126 nM; in the data set on Leishmania donovani [7], above 50100 nM; with Trypanosoma cruzi [9] it was above 50100 nM; with Trypanosoma cruzi [10] it was 251 nM; in data set [11], above 39800 nM; in data set [12], 126 nM. Moreover, in data set [8], the IC50 at 48 h is above 100000 nM.
